The values that follow come from US6271416A, “Quinolinone derivative, method for preparing the same, and anti-allergic agent” (Dainippon Ink and Chemicals, Inc., priority 1997, dated 2001).

The subject of the test is homologous passive cutaneous anaphylaxis (PCA) reaction. The experiment in a line: Effect on homologous passive cutaneous anaphylaxis (PCA) reaction in rats. Particulars: Rattus norvegicus, 1 hour before induction; for inhibition in vivo at 100 mg/kg: test compounds, 100 mg/kg oral. The class given is in vivo, rat (male wistar). How it is done: Effect on homologous passive cutaneous anaphylaxis (PCA) reaction in rats
This experimental animal model is caused by immediate type allergic reaction, namely, antigen-antibody reaction. In the following, the method of this pharmacological test will be explained.
Method: Male wistar rats (9 weeks old) were intradermally administered 0.05 ml of anti-serum against dinitrophenylated ascaris (DNP-As) into two sites on the shaved dorsal skin. 48 hours later, quinolinone derivatives (test compounds) suspended in 0.5% methylcellulose (MC) were given orally at a dose of 100 mg/kg to the animals. 1 hour after administration of Test compounds, the animals were induced anaphylaxis by injection of saline (1 ml) dissolving 1 mg of trinitrophenylated ascaris (TNP-As) and 5 mg of Evans Blue into the tail vein of the animals. 30 minutes after induction of anaphylaxis, animals were anesthetized by ether and killed by bleeding, and were flayed dorsal skin. The leakage of dye was assessed by measuring the diameter (mean of shortest and longest diameter) of the blue spot on the inside surface of dorsal skin. As vehicle control group, only 0.5% MC solution was administered orally, and as positive control group, Tranilast suspended in 0.5% MC were administered orally at a dose of 200 mg/kg to the animals with the same method as the test compounds groups. Each experimental group consisted of 5 rats. In the conditions of this experinent, it was considered that the compound, which inhibited PCA reaction by over forty (40) percent against that in vehicle control group, was evidently effective for immediate type allergy.
Inhibition (%)=(A-B)/A×100 (Equation 1)
A: leakage of dye in vehicle control group
B: leakage of dye in test compound group or positive control group

Compound `CCOc1c(O)c2c(N)cccc2n(C)c1=O` [Compound 23, 5-amino-3-ethoxy-4-hydroxy-1-methyl-2(1H)-quinolinone] came in with an inhibition in vivo at 100 mg/kg of 40%.

On to `Cn1c(=O)c(Oc2ccccc2)c(O)c2cc(N)ccc21` [Compound 24, 6-amino-3-phenoxy-4-hydroxy-1-methyl-2(1H)-quinolinone], for which the inhibition in vivo at 100 mg/kg turned out to be 42%.

In turn, `CC(=O)Nc1ccc2c(c1)c(O)c(Oc1ccccc1)c(=O)n2C` [Compound 26, 6-acetylamino-3-phenoxy-4-hydroxy-1-methyl-2(1H)-quinolinone] displayed an inhibition in vivo at 100 mg/kg of 39%.

`CCCCCCCCn1c(=O)c(Oc2ccccc2)c(O)c2cc(-c3ccccc3)ccc21` [Compound 34, 6-phenyl-3-phenoxy-4-hydroxy-1-octyl-2(1H)-quinolinone] registered an inhibition in vivo at 100 mg/kg of 37%.

In turn, `COc1c(O)c2c(O)cc(O)cc2n(C)c1=O` [Compound 36, 5,7-dihydroxy-3-methoxy-4-hydroxy-1-methyl-2(1H)-quinolinone] had an inhibition in vivo at 100 mg/kg of 45%.

`CCCCOc1c(O)c2c(C(=O)OCC)cccc2n(C)c1=O` [Compound 38, 5-ethoxycarbonyl-3-butoxy-4-hydroxy-1-methyl-2(1H)-quinolinone] gave an inhibition in vivo at 100 mg/kg of 45%.

On to `CCOc1c(O)c2c(N)cccc2n(C/C=C(\C)CCC=C(C)C)c1=O` [Compound 44, 5-amino-3-ethoxy-4-hydroxy-1-geranyl-2(1H)-quinolinone], for which the inhibition in vivo at 100 mg/kg is 42%.

`CC(C)=CCC/C(C)=C/COc1c(O)c2cccc(N)c2n(C)c1=O` [Compound 45, 8-amino-3-geranyloxy-4-hydroxy-1-methyl-2(1H)-quinolinone] had an inhibition in vivo at 100 mg/kg of 46%.

Compound `CCCCCCCCCCNc1ccc2c(c1)c(O)c(OC)c(=O)n2C` [Compound 49, 6-decylamino-3-methoxy-4-hydroxy-1-methyl-2(1H)-quinolinone] yielded an inhibition in vivo at 100 mg/kg of 50%.

Regarding `COc1c(O)c2cc(NC/C=C(\C)CCC=C(C)C)ccc2n(C)c1=O` [Compound 52, 6-geranylamino-3-methoxy-4-hydroxy-1-methyl-2(1H)-quinolinone], the inhibition in vivo at 100 mg/kg amounted to 49%.

Compound `CCCCNc1cccc2c(O)c(OC/C=C(\C)CCC=C(C)C)c(=O)n(C)c12` [Compound 53, 8-butylamino-3-geranyloxy-4-hydroxy-1-methyl-2(1H)-quinolinone] gave an inhibition in vivo at 100 mg/kg of 45%.

`CCCCCCCCCCOc1ccc2c(c1)c(O)c(OC)c(=O)n2C` [Compound 54, 6-decyloxy-3-methoxy-4-hydroxy-1-methyl-2(1H)-quinolinone] yielded an inhibition in vivo at 100 mg/kg of 50%.

For the compound `COc1c(O)c2cc(C/C=C(\C)CCC=C(C)C)ccc2n(C)c1=O` [Compound 61, 6-geranyl-3-methoxy-4-hydroxy-1-methyl-2(1H)-quinolinone], the inhibition in vivo at 100 mg/kg was 42%.

`CCCCCCCCCCOC(=O)c1cccc2c1c(O)c(OCCCC)c(=O)n2C` [Compound 68, 5-decyloxycarbonyl-3-butoxy-4-hydroxy-1-methyl-2(1H)-quinolinone]: the inhibition in vivo at 100 mg/kg was determined as 49%.

In turn, `CCCCCCCCOc1c(O)c2ccc(NC(C)=O)cc2n(C)c1=O` [Compound 76, 7-acetylamino-3-octyloxy-4-hydroxy-1-methyl-2(1H)-quinolinone] gave an inhibition in vivo at 100 mg/kg of 51%.

`CCCCCCCCOc1c(O)c2c(NC(=O)/C=C/c3cc(OC)c(O)c(OC)c3)cccc2n(C)c1=O` [Compound 77, 5-[(3,5-dimethoxy-4-hydroxycinnamoyl)amino]-3-octyloxy-4-hydroxy-1-methyl-2(1H)-quinolinone] displayed an inhibition in vivo at 100 mg/kg of 55%.

`CCCCCCCCOc1c(O)c2cc(NC(=O)/C=C/c3cc(OC)c(O)c(OC)c3)ccc2n(C)c1=O` [Compound 78, 6-[(3,5-dimethoxy-4-hydroxycinnamoyl)amino]-3-octyloxy-4-hydroxy-1-methyl-2(1H)-quinolinone] returned an inhibition in vivo at 100 mg/kg of 50%.

As for `CCCCCCCCOc1c(O)c2cccc(NC(=O)/C=C/c3cc(OC)c(O)c(OC)c3)c2n(C)c1=O` [Compound 79, 8-[(3,5-dimethoxy-4-hydroxycinnamoyl)amino]-3-octyloxy-4-hydroxy-1-methyl-2(1H)-quinolinone], at 100 mg/kg the inhibition in vivo was 49%.

As for `CCCCOc1c(O)c2cc(C(=O)OCC)ccc2n(C)c1=O` [Compound 80, 6-ethoxycarbonyl-3-butoxy-4-hydroxy-1-methyl-2(1H)-quinolinone], the inhibition in vivo at 100 mg/kg came to 41%.

In the case of `CCCCOc1c(O)c2cccc(C(=O)Oc3ccccc3)c2n(C)c1=O` [Compound 83, 8-phenoxycarbonyl-3-butoxy-4-hydroxy-1-methyl-2(1H)-quinolinone], testing at 100 mg/kg gave an inhibition in vivo of 42%.

`CCCCCCCCOc1cccc2c1c(O)c(OC)c(=O)n2C` [Compound 84, 5-octyloxy-3-methoxy-4-hydroxy-1-methyl-2(1H)-quinolinone] showed an inhibition in vivo at 100 mg/kg of 49%.

In turn, `CCCCCCOc1c(O)c2cccc(OCCCCCC)c2n(C)c1=O` [Compound 85, 3,8-dihexyloxy-4-hydroxy-1-methyl-2(1H)-quinolinone] returned an inhibition in vivo at 100 mg/kg of 50%.

`CCCCCCCCOc1c(O)c2cccc(NC)c2n(C)c1=O` [Compound 86, 8-methylamino-3-octyloxy-4-hydroxy-1-methyl-2(1H)-quinolinone] came in with an inhibition in vivo at 100 mg/kg of 53%.

For the compound `COc1ccc(/C=C/C(=O)Nc2ccccc2C(=O)O)cc1OC` [Tranilast, reference compound], testing at 200 mg/kg (positive control, 200 mg/kg oral) gave an inhibition in vivo of 52%.

A word on the inhibition in vivo: it is the share of the control response that was lost under treatment. Lower therefore signals a weak effect.
